Assay results: patent publication US5011854A, “Hydroxamic acid derivatives and use thereof in combatting lipoxygenase-mediated diseases” (Kyowa Hakko Kogyo Co. Ltd., priority 1987, dated 1991)

Assays:
12-lipoxygenase [1] = molecular target: T1, 12-lipoxygenase (Bos taurus, UniProt F1MFA8); test: Platelet 12-lipoxygenase inhibiting activity (Test Example 2, [14C]-arachidonic acid, TLC); assay type: biochemical; conditions: bovine platelet-derived preparation; 20 μM [14C]-arachidonic acid; pH 7.4; 30° C., 10 min; TLC/scintillation; read-out: Inhibitory Activity IC50, 12-Lipoxygenase
T1 construct: a bovine platelet-derived preparation was used as the 12-lipoxygenase source; from tissue; host or cells: bovine platelets
T1 sequence (F1MFA8 1-663): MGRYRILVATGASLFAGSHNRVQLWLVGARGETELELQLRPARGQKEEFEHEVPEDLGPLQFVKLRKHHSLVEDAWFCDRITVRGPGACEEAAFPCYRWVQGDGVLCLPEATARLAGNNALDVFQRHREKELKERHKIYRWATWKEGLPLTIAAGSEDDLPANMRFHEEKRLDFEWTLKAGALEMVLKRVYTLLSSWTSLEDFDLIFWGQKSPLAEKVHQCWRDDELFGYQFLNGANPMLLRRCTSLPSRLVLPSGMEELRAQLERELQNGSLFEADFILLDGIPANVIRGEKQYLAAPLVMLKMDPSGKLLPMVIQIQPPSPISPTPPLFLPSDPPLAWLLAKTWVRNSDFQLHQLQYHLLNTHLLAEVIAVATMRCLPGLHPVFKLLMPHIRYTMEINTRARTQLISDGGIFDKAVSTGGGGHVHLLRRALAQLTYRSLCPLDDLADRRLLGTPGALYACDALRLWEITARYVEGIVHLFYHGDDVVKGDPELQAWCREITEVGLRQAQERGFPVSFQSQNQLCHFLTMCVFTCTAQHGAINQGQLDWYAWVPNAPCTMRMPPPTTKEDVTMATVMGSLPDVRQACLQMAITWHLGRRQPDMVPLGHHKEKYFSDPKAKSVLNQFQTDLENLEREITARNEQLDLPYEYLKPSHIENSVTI

[2] = literature; cited from earlier work
lipoxygenase = conditions: known compounds; cited from earlier work
5-lipoxygenase [3] = molecular target: T2, 5-lipoxygenase (Rattus norvegicus, UniProt P12527); test: 5-Lipoxygenase inhibiting activity (Test Example 2, [14C]-arachidonic acid, TLC); assay type: biochemical; conditions: RBL-1 cells as enzyme source; 27 μM [14C]-arachidonic acid; pH 7.4; 37° C., 5 min; TLC/scintillation; read-out: Inhibitory Activity IC50, 5-Lipoxygenase
T2 construct: rat basophilic leukemia cells (RBL-1, ATCC No. CRL 1378) were used as the 5-lipoxygenase source; endogenous in cells; host or cells: RBL-1 (rat basophilic leukemia, ATCC CRL 1378)
T2 sequence (P12527 1-673): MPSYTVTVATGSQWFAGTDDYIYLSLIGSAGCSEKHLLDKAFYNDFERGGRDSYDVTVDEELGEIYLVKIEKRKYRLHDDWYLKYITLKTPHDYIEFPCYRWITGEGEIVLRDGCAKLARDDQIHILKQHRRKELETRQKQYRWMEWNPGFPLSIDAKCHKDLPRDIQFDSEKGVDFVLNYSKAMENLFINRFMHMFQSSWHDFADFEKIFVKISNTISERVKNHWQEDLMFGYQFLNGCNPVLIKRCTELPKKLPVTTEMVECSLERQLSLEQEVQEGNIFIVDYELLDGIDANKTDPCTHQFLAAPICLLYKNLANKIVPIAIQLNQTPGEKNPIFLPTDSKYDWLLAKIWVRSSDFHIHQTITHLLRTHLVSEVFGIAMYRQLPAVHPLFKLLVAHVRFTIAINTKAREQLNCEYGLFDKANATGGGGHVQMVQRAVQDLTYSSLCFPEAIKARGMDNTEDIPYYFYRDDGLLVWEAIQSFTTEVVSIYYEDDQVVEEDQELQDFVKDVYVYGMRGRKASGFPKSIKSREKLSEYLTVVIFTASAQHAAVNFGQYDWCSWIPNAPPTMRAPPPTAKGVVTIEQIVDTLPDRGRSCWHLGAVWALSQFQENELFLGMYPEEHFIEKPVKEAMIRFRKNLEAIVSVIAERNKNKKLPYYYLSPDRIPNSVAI
Protocol: The compounds listed in Table 3 were tested for their lipoxygenase inhibiting activity by the following methods:
(a') 5-Lipoxygenase inhibiting activity
Essentially, the same method described in the above (a) was used. Thus, rat basophilic leukemia cells (RBL-1, ATCC No. CRL 1378) were used as the 5-lipoxygenase source. These cells were contacted with the test compound in 30 μl of 0.17 M Tris-hydrochloride buffer (pH 7.4) containing […] calcium chloride, 3.3 mM adenosine triphosphate and 1 mM glutathione at 37° C. for 5 minutes. Then, 25 μl of 27 μM [^14 C]-arachidonic acid was added and the enzymatic reaction was allowed to proceed at 37° C. for 5 minutes. To the reaction mixture was added 50 μl of ethyl acetate/methanol/0.2 M citric acid (30/4/1), and the whole mixture was stirred. The reaction product extracted into the ethyl acetate layer was separated by silica gel thin layer chromatography [Merck Art 5631: developing solvent; petroleum ether/ethyl ether/acetic acid (50/50/1)]. The site of the product [^14 C]-5-hydroxy-6,8,11,14-eicosatetraenoic acid was detected by autoradiography, the gel portion corresponding to the site was scraped off and assayed for ^14 C using a liquid scintillation counter, and the yield of the product was determined.

12-lipoxygenase [4] = molecular target: T1, 12-lipoxygenase; test: Platelet 12-lipoxygenase inhibiting activity (Test Example 1, HPLC determination of 12-HETE); assay type: biochemical; conditions: bovine platelet-derived preparation; 60 μM arachidonic acid; pH 7.4; 30° C., 10 min; HPLC of 12-HETE; read-out: Inhibitory Activity IC50, 12-Lipoxygenase
Protocol: (§1) The compounds listed in Table 2 were tested in vitro for their lipoxygenase inhibiting activity in the following manner: a) Leukocyte 5-lipoxygenase inhibiting activity
The method of D.H. Nugtern et al. Biochem. Biophys. Acta, 380, 299 (1975) was modified. Thus, a bovine platelet-derived preparation was used as the 12-lipoxygenase source. This enzyme preparation and the test compound were brought into contact with each other in 60 μl of 0.17 M Tris-hydrochloride buffer (pH 7.4) at 30° C. for 5 minutes, 50 μl of 60 μM arachidonic acid was then added and the enzymatic reaction was allowed to proceed at 30° C. for 10 minutes. Thereafter, 200 μl of methanol and 13-hydroxylinolic acid (internal standard) were added and, after sufficient shaking, the mixture was allowed to stand at -20° C. for 30 minutes. The supernatant was collected by centrifugation (12,000 revolutions per minute, 10 minutes). This supernatant was evaporated to dryness under a nitrogen gas stream. To the residue was added 200 μl of 75% aqueous methanol and 100 μl of the resultant solution was subjected to high performance liquid chromatography for the determination of 12-HETE (12-hydroxyeicosapetraenoic acid). 12-HETE was assayed by ultraviolet absorption monitoring at 234 nm. The yield of 12-HETE was calculated from the peak area corrected in comparison with the peak of the internal standard.

5-lipoxygenase [5] = molecular target: T2, 5-lipoxygenase; test: Leukocyte 5-lipoxygenase inhibiting activity (Test Example 1, HPLC determination of 5-HETE); assay type: biochemical; conditions: RBL-1 cells as enzyme source; 60 μM arachidonic acid; pH 7.4; 37° C., 5 min; HPLC of 5-HETE; read-out: Inhibitory Activity IC50, 5-Lipoxygenase
Protocol: as §1
The method of B.A. Jakschik et al. Biochem. Biophys. Res. Commun., 95, 103 (1980) was modified. Thus, rat basophilic leukemia cells (RBL-1, ATCC No. CRL 1378) were used as the 5-lipoxygenase source. These cells were brought into contact with the test compound in 60 μl of 0.17 M Tris-hydrochloride buffer (pH 7.4) containing […], 3.3 mM adenosine triphosphate and 1 mM glutathione at 37° C. for 5 minutes, then 50 μl of 60 μM arachidonic acid was added and the enzymatic reaction was allowed to proceed at 37° C. for 5 minutes. Thereafter, 200 μl of methanol and 13-hydroxylinolic acid (internal standard) were added. After sufficient shaking, the mixture was allowed to stand at -20° C. for 30 minutes and then centrifuged for 10 minutes (12,000 revolutions per minute) to collect the supernatant. The supernatant was evaporated to dryness under a nitrogen gas stream. To the residue was added 200 μl of 75% aqueous methanol and 100 μl of the resultant solution was subjected to high performance liquid chromatography for the determination of 5-HETE (5-hydroxyeicosatetraenoic acid). 5-HETE was assayed on the basis of the absorption at 234 nm as measured by ultraviolet absorption monitoring. The yield of 5-HETE was calculated from the peak area corrected in comparison with the peak of the internal standard. […] (b) Platelet 12-lipoxygenase inhibiting activity

Structure (SMILES) | IC50 (12-lipoxygenase [1]) [µM] | IC50 (5-lipoxygenase [3]) [µM] | IC50 (5-lipoxygenase [5]) [µM] | further results
CC1=C(C)C(=O)C(CCCCC#CCCCC#CCO)=C(C)C1=O [AA-861, 2-(12-hydroxy-dodeca-5,10-diynyl)-3,5,6-trimethyl-1,4-benzoquinone, reference compound] | 450 | 0.68 | – | pharmacological activities (in words) [2]: bronchial contraction suppressing, anti-inflammatory, anti-myocardiac infarction and other activities; lipoxygenase inhibiting activity (in words) (lipoxygenase): known to have lipoxygenase inhibiting activity
Cl.NC1=NN(c2cccc(C(F)(F)F)c2)CC1 [BW-755C, 3-amino-1-(3-trifluoromethylphenyl)-2-pyrazoline hydrochloride] | 8.8 | – | – | pharmacological activities (in words) [2]: anti-inflammatory and other activities; lipoxygenase inhibiting activity (in words) (lipoxygenase): known to have lipoxygenase inhibiting activity
CCCCCCCCCCCC(=O)NCCCCCN(O)C(=O)CCC(=O)OC [Compound No. 2] | – | – | 0.01 | IC50 (12-lipoxygenase [4]): 3.3 µM
CCCCCCCCCCCC(=O)N(O)CCCCCNCCCC(=O)O [Compound No. 6] | – | – | 0.56 | –
CCCCCCCCCCCC(=O)N(O)CCCCCNCCCC(=O)OC [Compound No. 7] | – | – | 0.052 | –
CCCCCCCCCCCC(=O)N(O)CCCCCNC(=O)CC(=O)OCC [Compound No. 8] | – | – | 0.025 | IC50 (12-lipoxygenase [4]): 0.012 µM
CCCCCCCCCCCC(=O)N(O)CCCCCNC(=O)CC(=O)OC [Compound No. 9] | – | – | 0.054 | IC50 (12-lipoxygenase [4]): 0.011 µM
CCCCCCCCCCCC(=O)N(O)CCCNC(=O)CCC(=O)O [Compound No. 10] | – | – | 0.27 | IC50 (12-lipoxygenase [4]): 7 µM
CCCCCCCCCCCC(=O)N(O)CCCNC(=O)CCC(=O)OC [Compound No. 11] | – | – | 0.012 | –
CCCCCCCCCCCC(=O)N(O)CCCCCNC(=O)CCC(=O)O [Compound No. 12] | 0.035 | 1.87 | – | –
CCCCCCCCCCCC(=O)N(O)CCCCCNC(=O)CCC(=O)OC [Compound No. 13] | 0.014 | 0.055 | – | –
CCCCCCCCCCCCCCCCCC(=O)N(O)CCCCCNC(=O)CCC(=O)OC [compound 15] | 32 | 0.8 | – | –
CCCCCCCCCCCCCCCC(=O)N(O)CCCCCNC(=O)CCC(=O)OC [compound 17] | 1 | 0.47 | – | –
CCC(C)CCCCCCCCCCC(=O)N(O)CCCCCNC(=O)CCC(=O)OC (stereo not shown) [compound 21] | 0.31 | 0.36 | – | –
COC(=O)CCC(=O)NCCCCCN(O)C(=O)CCCCCCCCCCC(C)C [compound 23] | 0.056 | 0.3 | – | –
CCCCCCCCCCCCC(=O)N(O)CCCCCNC(=O)CCC(=O)OC [compound 24] | 0.036 | 0.19 | – | –
COC(=O)CCC(=O)NCCCCCN(O)C(=O)CCCCCCCCC(C)C [compound 27] | 0.033 | 0.089 | – | –
